Reference: patent EP0377642B1, “HERBICIDES FOR WEED CONTROL IN RICE” (E.I. DU PONT DE NEMOURS AND COMPANY, priority 1987, dated 1989)

Columns and labels:
Format in all cases: in vivo
[1] = tested on: Ludwigia linifolia; test: Herbicidal efficacy with Bensulfuron methyl and 2,4-D in Thailand (Table 18); conditions: 13 days after treatment
Summary of the method: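 Crop effects and weed control are scored after hand-sprayed application to field rice. The sulfonylurea, applied on its own or in combination, went onto transplanted or direct-seeded plantings at U.S. and Southeast Asian locations.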

[2] = tested on: FIMBRISTYLIS MILIACEA; test: Herbicidal efficacy alone and with 2,4-D in Thailand (Table 3); conditions: 6 weeks after application
Text: (§1) Methyl 2-[[[[(4-methoxy-6-methyl-1,3,5-triazin-2-yl)amino]carbonyl]amino]sulfonyl]benzoate (Compound 1) and mixtures thereof with other compounds were applied as a spray (using a hand sprayer) to rice (either transplanted or direct seeded) in several rice growing areas in Southeast Asia and in the U.S. Tables 1-28 contain the results of these tests and clearly exemplify the utility of this invention. The details of each application are included in the appropriate table. [drawing 2]

[3] = tested on: weeds; test: Greenhouse test of Compound 1 and Compound 2, herbicidal efficacy (Table 26); conditions: rated 24 days after treatment; for % CONTROL OR INJURY AT: Alisma triviale; for % CONTROL OR INJURY AP: Alternanthera philoxeroides; for % CONTROL OR INJURY CD: Cyperus difformis; for % CONTROL OR INJURY SR: Sagittaria rigida
Text: as §1

[4] = tested on: rice; test: Herbicidal efficacy in United States (Table 16); conditions: 57 days after application
Text: as §1

[5] = tested on: Eclipta alba; test: Herbicidal efficacy in United States (Table 16); conditions: 57 days after application
Text: as §1

[6] = tested on: Sesbania exaltata; test: Herbicidal efficacy in United States (Table 16); conditions: 57 days after application
Text: as §1

[7] = tested on: Cyperus species; test: Field test, herbicidal efficacy in rice, Thailand, applied 36 days after seeding (Table 1); conditions: 100=complete control
Text: as §1

[8] = tested on: Sphenoclea zeylanica; test: as above; conditions: 100=complete control
Text: as §1

[9] = tested on: PS; test: Herbicidal efficacy in relation to application timing in Indonesia (Table 5)
Text: as §1

[10] = tested on: rice; test: Effects on rice growth in Thailand, phytotoxicity (Table 4); conditions: scale 0-10
Text: as §1

## COC(=O)c1ccccc1CS(=O)(=O)NC(=O)Nc1nc(OC)cc(OC)n1 [Bensulfuron methyl, methyl 2-[[[[[(4,6-dimethoxy-2-pyrimidinyl)amino]carbonyl]amino]sulfonyl]methyl]benzoate]
[1]; 10 GAI/HA
  % CONTROL OR INJURY LL: 100%
[1]; 15 GAI/HA
  % CONTROL OR INJURY LL: 100%
[1]; 20 GAI/HA
  % CONTROL OR INJURY LL: 100%

## COC(=O)c1ccccc1S(=O)(=O)NC(=O)Nc1nc(C)nc(OC)n1 [Compound 1, Methyl 2-[[[[(4-methoxy-6-methyl-1,3,5-triazin-2-yl)amino]carbonyl]amino]sulfonyl]benzoate]
[2]; applied 7 DAS, 3 GAI/HA
  FIMBRISTYLIS MILIACEA CONTROL: 53%
[2]; applied 7 DAS, 6 GAI/HA
  FIMBRISTYLIS MILIACEA CONTROL: 73%
[2]; applied 14 DAS, 3 GAI/HA
  FIMBRISTYLIS MILIACEA CONTROL: 20%
[2]; applied 14 DAS, 6 GAI/HA
  FIMBRISTYLIS MILIACEA CONTROL: 40%
[2]; applied 21 DAS, 3 GAI/HA
  FIMBRISTYLIS MILIACEA CONTROL: 0%
[2]; applied 21 DAS, 6 GAI/HA
  FIMBRISTYLIS MILIACEA CONTROL: 0%
[2]; applied 28 DAS, 3 GAI/HA
  FIMBRISTYLIS MILIACEA CONTROL: 0%
[2]; applied 28 DAS, 6 GAI/HA
  FIMBRISTYLIS MILIACEA CONTROL: 0%
[3]; rate 1 g ai/ha
  % CONTROL OR INJURY AT: 80%
  % CONTROL OR INJURY AP: 0%
  % CONTROL OR INJURY CD: 60%
  % CONTROL OR INJURY SR: 90%
[3]; rate 2 g ai/ha
  % CONTROL OR INJURY AT: 95%
  % CONTROL OR INJURY AP: 0%
  % CONTROL OR INJURY CD: 60%
  % CONTROL OR INJURY SR: 95%
[3]; rate 4 g ai/ha
  % CONTROL OR INJURY AT: 95%
  % CONTROL OR INJURY AP: 60%
  % CONTROL OR INJURY CD: 80%
  % CONTROL OR INJURY SR: 95%
[3]; rate 8 g ai/ha
  % CONTROL OR INJURY AT: 95%
  % CONTROL OR INJURY AP: 70%
  % CONTROL OR INJURY CD: 100%
  % CONTROL OR INJURY SR: 95%
[4]; 7 GAI/HA
  % CONTROL OR INJURY RICE: 3%
[4]; 14 GAI/HA
  % CONTROL OR INJURY RICE: 10%
[4]; 21 GAI/HA
  % CONTROL OR INJURY RICE: 5%
[5]; 7 GAI/HA
  % CONTROL OR INJURY EA: 97%
[5]; 14 GAI/HA
  % CONTROL OR INJURY EA: 98%
[5]; 21 GAI/HA
  % CONTROL OR INJURY EA: 98%
[6]; 7 GAI/HA
  % CONTROL OR INJURY SE: 97%
[6]; 14 GAI/HA
  % CONTROL OR INJURY SE: 98%
[6]; 21 GAI/HA
  % CONTROL OR INJURY SE: 98%
[7]; Trial 1, 2 GAI/HA
  Herbicidal efficacy CY 2WAA: 33
[7]; Trial 1, 3 GAI/HA
  Herbicidal efficacy CY 2WAA: 67
[7]; Trial 1, 4 GAI/HA
  Herbicidal efficacy CY 2WAA: 67
[7]; Trial 1, 6 GAI/HA
  Herbicidal efficacy CY 2WAA: 67
[7]; Trial 2, 2 GAI/HA
  Herbicidal efficacy CY 2WAA: 0
[7]; Trial 2, 3 GAI/HA
  Herbicidal efficacy CY 2WAA: 67
[7]; Trial 2, 4 GAI/HA
  Herbicidal efficacy CY 2WAA: 33
[7]; Trial 2, 6 GAI/HA
  Herbicidal efficacy CY 2WAA: 67
[8]; Trial 1, 2 GAI/HA
  Herbicidal efficacy SZ 2WAA: 100
  Herbicidal efficacy SZ 4WAA: 100
  Herbicidal efficacy SZ 6WAA: 100
[8]; Trial 1, 3 GAI/HA
  Herbicidal efficacy SZ 2WAA: 99
  Herbicidal efficacy SZ 4WAA: 100
  Herbicidal efficacy SZ 6WAA: 100
[8]; Trial 1, 4 GAI/HA
  Herbicidal efficacy SZ 2WAA: 100
  Herbicidal efficacy SZ 4WAA: 100
  Herbicidal efficacy SZ 6WAA: 100
[8]; Trial 1, 6 GAI/HA
  Herbicidal efficacy SZ 2WAA: 100
  Herbicidal efficacy SZ 4WAA: 100
  Herbicidal efficacy SZ 6WAA: 100
[8]; Trial 2, 2 GAI/HA
  Herbicidal efficacy SZ 2WAA: 97
  Herbicidal efficacy SZ 4WAA: 99
  Herbicidal efficacy SZ 6WAA: 99
[8]; Trial 2, 3 GAI/HA
  Herbicidal efficacy SZ 2WAA: 100
  Herbicidal efficacy SZ 4WAA: 100
  Herbicidal efficacy SZ 6WAA: 100
[8]; Trial 2, 4 GAI/HA
  Herbicidal efficacy SZ 2WAA: 99
  Herbicidal efficacy SZ 4WAA: 99
  Herbicidal efficacy SZ 6WAA: 100
[8]; Trial 2, 6 GAI/HA
  Herbicidal efficacy SZ 2WAA: 100
  Herbicidal efficacy SZ 4WAA: 100
  Herbicidal efficacy SZ 6WAA: 100
[9]; 3 WAT, 2 GAI/HA, evaluation 1
  % CONTROL PS: 0%
[9]; 3 WAT, 2 GAI/HA, evaluation 2
  % CONTROL PS: 0%
[9]; 3 WAT, 2 GAI/HA, evaluation 3
  % CONTROL PS: 0%
[9]; 3 WAT, 3 GAI/HA, evaluation 1
  % CONTROL PS: 0%
[9]; 3 WAT, 3 GAI/HA, evaluation 2
  % CONTROL PS: 0%
[9]; 3 WAT, 3 GAI/HA, evaluation 3
  % CONTROL PS: 0%
[9]; 3 WAT, 4 GAI/HA, evaluation 1
  % CONTROL PS: 0%
[9]; 3 WAT, 4 GAI/HA, evaluation 2
  % CONTROL PS: 0%
[9]; 3 WAT, 4 GAI/HA, evaluation 3
  % CONTROL PS: 0%
[9]; 3 WAT, 6 GAI/HA, evaluation 1
  % CONTROL PS: 0%
[9]; 3 WAT, 6 GAI/HA, evaluation 2
  % CONTROL PS: 0%
[9]; 3 WAT, 6 GAI/HA, evaluation 3
  % CONTROL PS: 0%
[9]; 3 WAT, 8 GAI/HA, evaluation 1
  % CONTROL PS: 0%
[9]; 3 WAT, 8 GAI/HA, evaluation 2
  % CONTROL PS: 0%
[9]; 3 WAT, 8 GAI/HA, evaluation 3
  % CONTROL PS: 0%
[9]; 4 WAT, 2 GAI/HA, evaluation 1
  % CONTROL PS: 0%
[9]; 4 WAT, 2 GAI/HA, evaluation 2
  % CONTROL PS: 0%
[9]; 4 WAT, 2 GAI/HA, evaluation 3
  % CONTROL PS: 0%
[9]; 4 WAT, 3 GAI/HA, evaluation 1
  % CONTROL PS: 0%
[9]; 4 WAT, 3 GAI/HA, evaluation 2
  % CONTROL PS: 0%
[9]; 4 WAT, 3 GAI/HA, evaluation 3
  % CONTROL PS: 0%
[9]; 4 WAT, 4 GAI/HA, evaluation 1
  % CONTROL PS: 0%
[9]; 4 WAT, 4 GAI/HA, evaluation 2
  % CONTROL PS: 0%
[9]; 4 WAT, 4 GAI/HA, evaluation 3
  % CONTROL PS: 0%
[9]; 4 WAT, 6 GAI/HA, evaluation 1
  % CONTROL PS: 0%
[9]; 4 WAT, 6 GAI/HA, evaluation 2
  % CONTROL PS: 0%
[9]; 4 WAT, 6 GAI/HA, evaluation 3
  % CONTROL PS: 0%
[9]; 4 WAT, 8 GAI/HA, evaluation 1
  % CONTROL PS: 0%
[9]; 4 WAT, 8 GAI/HA, evaluation 2
  % CONTROL PS: 0%
[9]; 4 WAT, 8 GAI/HA, evaluation 3
  % CONTROL PS: 0%
[9]; 5 WAT, 2 GAI/HA, evaluation 1
  % CONTROL PS: 0%
[9]; 5 WAT, 2 GAI/HA, evaluation 2
  % CONTROL PS: 0%
[9]; 5 WAT, 2 GAI/HA, evaluation 3
  % CONTROL PS: 0%
[9]; 5 WAT, 3 GAI/HA, evaluation 1
  % CONTROL PS: 0%
[9]; 5 WAT, 3 GAI/HA, evaluation 2
  % CONTROL PS: 0%
[9]; 5 WAT, 3 GAI/HA, evaluation 3
  % CONTROL PS: 0%
[9]; 5 WAT, 4 GAI/HA, evaluation 1
  % CONTROL PS: 0%
[9]; 5 WAT, 4 GAI/HA, evaluation 2
  % CONTROL PS: 0%
[9]; 5 WAT, 4 GAI/HA, evaluation 3
  % CONTROL PS: 0%
[9]; 5 WAT, 6 GAI/HA, evaluation 1
  % CONTROL PS: 0%
[9]; 5 WAT, 6 GAI/HA, evaluation 2
  % CONTROL PS: 0%
[9]; 5 WAT, 6 GAI/HA, evaluation 3
  % CONTROL PS: 0%
[9]; 5 WAT, 8 GAI/HA, evaluation 1
  % CONTROL PS: 0%
[9]; 5 WAT, 8 GAI/HA, evaluation 2
  % CONTROL PS: 0%
[9]; 5 WAT, 8 GAI/HA, evaluation 3
  % CONTROL PS: 0%
[10]; applied 7 DAS, 3 GAI/HA
  PHYTOTOXICITY: 1.67
[10]; applied 7 DAS, 6 GAI/HA
  PHYTOTOXICITY: 1.67
[10]; applied 14 DAS, 3 GAI/HA
  PHYTOTOXICITY: 1.0
[10]; applied 14 DAS, 6 GAI/HA
  PHYTOTOXICITY: 1.0
[10]; applied 21 DAS, 3 GAI/HA
  PHYTOTOXICITY: 0.67
[10]; applied 21 DAS, 6 GAI/HA
  PHYTOTOXICITY: 1.0
[10]; applied 28 DAS, 3 GAI/HA
  PHYTOTOXICITY: 0
[10]; applied 28 DAS, 6 GAI/HA
  PHYTOTOXICITY: 0
